Measured values: ChEMBL document CHEMBL1151184, “New diterpenes from Croton insularis” (J Nat Prod, 2004)

Assays:
HeLa = assay: Cytotoxicity against human HeLa cells by MTT assay; assay type: functional, cell-based
L1210 = assay: Cytotoxicity against mouse L1210 cells by MTT assay; assay type: functional, cell-based

SMILES: CC1(C)C(=O)CC[C@@]2(C)[C@@H]3C[C@@H]4[C@@H]5C[C@@]3(CC[C@@H]12)C[C@@]45C
- IC50 (HeLa): 131 µM
- IC50 (L1210): 103 µM

SMILES: C[C@@H]1CC[C@]2(C)[C@H](CC[C@@H](O)[C@]2(C)O)[C@@]1(C)CC(=O)c1ccoc1
- IC50 (HeLa): > 200 µM
- IC50 (L1210): 98 µM

SMILES: C[C@@H]1CC[C@]2(C)[C@H](CC[C@@H](O)[C@]2(C)O)[C@@]12C=C(c1ccoc1)OC2 [CROTINSULARIN]
- IC50 (HeLa): 148 µM
- IC50 (L1210): 128 µM

SMILES: C[C@@]12CCC[C@@](C)(C(=O)O)[C@@H]1CC[C@@]13C[C@H]4[C@@H](C[C@H]12)[C@]4(C)C3
- IC50 (HeLa): 99 µM
- IC50 (L1210): 99 µM

SMILES: CC1(C)[C@@H](O)CC[C@@]2(C)[C@@H]3C[C@@H]4[C@@H]5C[C@@]3(CC[C@@H]12)C[C@@]45C
- IC50 (HeLa): > 200 µM
- IC50 (L1210): 133 µM

SMILES: C[C@]1(CO)[C@@H]2CC[C@@]34C[C@H]5[C@@H](C[C@H]3[C@]2(C)CC[C@H]1O)[C@]5(C)C4
- IC50 (HeLa): 97 µM
- IC50 (L1210): 91 µM
